From patent publication US20240383886A1, “Protein Tyrosine Phosphatase Degraders and Methods of Use Thereof” (CALICO LIFE SCIENCES LLC, priority 2019, published 2024)

What was measured:
[1] = biological target: T1, PTPN2 (Homo sapiens, UniProt P17706); experiment: HiBiT-Degradation 293T.109 PTPN2 (Nano-Glo HiBiT Lytic Assay); assay type: cell-based; conditions: 293T.109 (HiBiT-PTPN2) cells, 24.0 hours
T1 construct: expressed in transfected cells; host or cells: 293T (293T.109 HiBiT-PTPN2 line; parental 293T WT from ATCC)
T1 sequence (P17706 1-415): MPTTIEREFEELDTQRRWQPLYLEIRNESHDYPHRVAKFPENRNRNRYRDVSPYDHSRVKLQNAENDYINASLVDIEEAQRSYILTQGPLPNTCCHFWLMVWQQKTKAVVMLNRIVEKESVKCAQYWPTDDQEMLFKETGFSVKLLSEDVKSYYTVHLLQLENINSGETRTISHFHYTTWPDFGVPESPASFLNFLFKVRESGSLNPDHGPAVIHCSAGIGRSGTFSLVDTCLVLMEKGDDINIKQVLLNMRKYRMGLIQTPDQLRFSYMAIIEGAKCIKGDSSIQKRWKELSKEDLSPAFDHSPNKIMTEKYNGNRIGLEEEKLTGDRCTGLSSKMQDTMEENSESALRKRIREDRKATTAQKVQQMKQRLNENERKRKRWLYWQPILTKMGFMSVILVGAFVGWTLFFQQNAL
Procedure, shortened: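 Luminescence from a lytic HiBiT read gave PTPN2 levels after 24 h compound exposure at 37° C. Compounds were tested at 11 half-log points from a 10 μM top concentration, in duplicate. The cells were 293T engineered with an N-terminal HiBiT–PTPN2 fusion, plated at 5000 per well, with untreated wells as negative control and no-reagent wells as positive control.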

[2] = tested on: PTPN2; experiment: HiBiT-Degradation B16F10.4 PTPN2; assay type: cell-based; conditions: B16F10.4 cells, 24.0 hours

DC50 [1] [nM]	DC50 [2] [nM]	SMILES
50 to 200	50 to 200	Cn1c(=O)n(C2CCC(=O)NC2=O)c2ccc(C3CCN(CCN4CC[C@H](COc5ccc6cc(O)c(N7CC(=O)NS7(=O)=O)c(F)c6c5)C4)CC3)cc21 (stereo partly drawn) [Example 150, 3-[5-[1-[2-[(3S)-3-[[8-fluoro-6-hydroxy-7-(1,1,4-trioxo-1,2,5-thiadiazolidin-2-yl)-2-naphthyl]oxymethyl]pyrrolidin-1-yl]ethyl]-4-piperidyl]-3-methyl-2-oxo-benzimidazol-1-yl]piperidine-2,6-dione]
50 to 200	≥ 1000	Cn1c(=O)n(C2CCC(=O)NC2=O)c2ccc(-c3ccc(NCC(C)(C)CCOc4ccc5cc(O)c(N6CC(=O)NS6(=O)=O)c(F)c5c4)cc3)cc21 (stereo not drawn) [Example 151, 3-[5-[4-[[4-[[8-fluoro-6-hydroxy-7-(1,1,4-trioxo-1,2,5-thiadiazolidin-2-yl)-2-naphthyl]oxy]-2,2-dimethyl-butyl]amino]phenyl]-3-methyl-2-oxo-benzimidazol-1-yl]piperidine-2,6-dione]
10 to 50	200 to 1000	Cn1nc(C2CCC(=O)NC2=O)c2ccc(C3CCN(CCn4cc(-c5ccc6c(F)c(N7CC(=O)NS7(=O)=O)c(O)cc6c5)cn4)CC3)cc21 (stereo not drawn) [Example 152, 3-[6-[1-[2-[4-[5-fluoro-7-hydroxy-6-(1,1,4-trioxo-1,2,5-thiadiazolidin-2-yl)-2-naphthyl]pyrazol-1-yl]ethyl]-4-piperidyl]-1-methyl-indazol-3-yl]piperidine-2,6-dione]
50 to 200	200 to 1000	Cn1c(=O)n(C2CCC(=O)NC2=O)c2ccc(-c3ccc(CNCC(C)(C)CCOc4ccc5cc(O)c(N6CC(=O)NS6(=O)=O)c(F)c5c4)cc3)cc21 (stereo not drawn) [Example 153, 3-[5-[4-[[[4-[[8-fluoro-6-hydroxy-7-(1,1,4-trioxo-1,2,5-thiadiazolidin-2-yl)-2-naphthyl]oxy]-2,2-dimethyl-butyl]amino]methyl]phenyl]-3-methyl-2-oxo-benzimidazol-1-yl]piperidine-2,6-dione]
200 to 1000	≥ 1000	Cn1c(=O)n(C2CCC(=O)NC2=O)c2ccc(C3CCN(Cc4ccn(-c5ccc6c(F)c(N7CC(=O)NS7(=O)=O)c(O)cc6c5)n4)CC3)cc21 (stereo not drawn) [Example 154, 3-(5-(1-((1-(6-(1,1-dioxido-4-oxo-1,2,5-thiadiazolidin-2-yl)-5-fluoro-7-hydroxynaphthalen-2-yl)-1H-pyrazol-3-yl)methyl)piperidin-4-yl)-3-methyl-2-oxo-2,3-dihydro-1H-benzo[d]imidazol-1-yl)piperidine-2,6-dione]
50 to 200	200 to 1000	Cn1c(=O)n(C2CCC(=O)NC2=O)c2ccc(N3CCC(O)(CC(=O)N4CC[C@@H](COc5ccc6cc(O)c(N7CC(=O)NS7(=O)=O)c(F)c6c5)C4)CC3)cc21 (stereo partly drawn) [Example 155, 3-[5-[4-[2-[(3R)-3-[[8-fluoro-6-hydroxy-7-(1,1,4-trioxo-1,2,5-thiadiazolidin-2-yl)-2-naphthyl]oxymethyl]pyrrolidin-1-yl]-2-oxo-ethyl]-4-hydroxy-1-piperidyl]-3-methyl-2-oxo-benzimidazol-1-yl]piperidine-2,6-dione]
10 to 50	200 to 1000	Cn1c(=O)n(C2CCC(=O)NC2=O)c2ccc(C3CCN(CC(=O)N4CCN(c5ccc6cc(O)c(N7CC(=O)NS7(=O)=O)c(F)c6c5)CC4)CC3)cc21 (stereo not drawn) [Example 156, 3-[5-[1-[2-[4-[8-fluoro-6-hydroxy-7-(1,1,4-trioxo-1,2,5-thiadiazolidin-2-yl)-2-naphthyl]piperazin-1-yl]-2-oxo-ethyl]-4-piperidyl]-3-methyl-2-oxo-benzimidazol-1-yl]piperidine-2,6-dione]
10 to 50	50 to 200	Cn1c(=O)n(C2CCC(=O)NC2=O)c2ccc(C3CCN(CC(C)(C)CCOc4ccc5cc(O)c(N6CC(=O)NS6(=O)=O)c(F)c5c4)CC3)cc21 (stereo not drawn) [Example 157, 3-[5-[1-[4-[[8-fluoro-6-hydroxy-7-(1,1,4-trioxo-1,2,5-thiadiazolidin-2-yl)-2-naphthyl]oxy]-2,2-dimethyl-butyl]-4-piperidyl]-3-methyl-2-oxo-benzimidazol-1-yl]piperidine-2,6-dione]
10 to 50	50 to 200	O=C1CCC(N2C(=O)c3cccc4c(C5CCN(CC(=O)N6CC(Oc7ccc8cc(O)c(N9CC(=O)NS9(=O)=O)c(F)c8c7)C6)CC5)ccc2c34)C(=O)N1 (stereo not drawn) [Example 158, 3-[6-[1-[2-[3-[[8-fluoro-6-hydroxy-7-(1,1,4-trioxo-1,2,5-thiadiazolidin-2-yl)-2-naphthyl]oxy]azetidin-1-yl]-2-oxo-ethyl]-4-piperidyl]-2-oxo-benzo[cd]indol-1-yl]piperidine-2,6-dione]
50 to 200	50 to 200	Cn1c(=O)n(C2CCC(=O)NC2=O)c2ccc(N3CCN(CC(=O)Nc4ccc5c(F)c(N6CC(=O)NS6(=O)=O)c(O)cc5c4)CC3)cc21 (stereo not drawn) [Example 159, 2-[4-[1-(2,6-dioxo-3-piperidyl)-3-methyl-2-oxo-benzimidazol-5-yl]piperazin-1-yl]-N-[5-fluoro-7-hydroxy-6-(1,1,4-trioxo-1,2,5-thiadiazolidin-2-yl)-2-naphthyl]acetamide]
10 to 50	200 to 1000	Cn1c(=O)n(C2CCC(=O)NC2=O)c2ccc(C3CN(CC(=O)Nc4ccc5c(F)c(N6CC(=O)NS6(=O)=O)c(O)cc5c4)C3)cc21 (stereo not drawn) [Example 160, 2-[3-[1-(2,6-dioxo-3-piperidyl)-3-methyl-2-oxo-benzimidazol-5-yl]azetidin-1-yl]-N-[5-fluoro-7-hydroxy-6-(1,1,4-trioxo-1,2,5-thiadiazolidin-2-yl)-2-naphthyl]acetamide]
200 to 1000	200 to 1000	Cn1c(=O)n(C2CCC(=O)NC2=O)c2ccc(C3CN(CC(=O)NCCOc4ccc5cc(O)c(N6CC(=O)NS6(=O)=O)c(F)c5c4)C3)cc21 (stereo not drawn) [Example 161, 2-[3-[1-(2,6-dioxo-3-piperidyl)-3-methyl-2-oxo-benzimidazol-5-yl]azetidin-1-yl]-N-[2-[[8-fluoro-6-hydroxy-7-(1,1,4-trioxo-1,2,5-thiadiazolidin-2-yl)-2-naphthyl]oxy]ethyl]acetamide]
10 to 50	50 to 200	Cn1c(=O)n(C2CCC(=O)NC2=O)c2ccc(C3CCN(CC(=O)N4CC[C@@H](COc5ccc6cc(O)c(N7CC(=O)NS7(=O)=O)c(F)c6c5)C4)CC3(F)F)cc21 (stereo partly drawn) [Example 162, 3-[5-[3,3-difluoro-1-[2-[(3R)-3-[[8-fluoro-6-hydroxy-7-(1,1,4-trioxo-1,2,5-thiadiazolidin-2-yl)-2-naphthyl]oxymethyl]pyrrolidin-1-yl]-2-oxo-ethyl]-4-piperidyl]-3-methyl-2-oxo-benzimidazol-1-yl]piperidine-2,6-dione]
10 to 50	10 to 50	Cn1nc([C@@H]2CCC(=O)NC2=O)c2ccc(N3CCC(CC(=O)Nc4ccc5c(F)c(N6CC(=O)NS6(=O)=O)c(O)cc5c4)CC3)cc21 [Example 163, 2-[1-[3-[(3S)-2,6-dioxo-3-piperidyl]-1-methyl-indazol-6-yl]-4-piperidyl]-N-[5-fluoro-7-hydroxy-6-(1,1,4-trioxo-1,2,5-thiadiazolidin-2-yl)-2-naphthyl]acetamide]
10 to 50	50 to 200	Cn1nc([C@H]2CCC(=O)NC2=O)c2ccc(N3CCC(CC(=O)Nc4ccc5c(F)c(N6CC(=O)NS6(=O)=O)c(O)cc5c4)CC3)cc21 [Example 164, 2-[1-[3-[(3R)-2,6-dioxo-3-piperidyl]-1-methyl-indazol-6-yl]-4-piperidyl]-N-[5-fluoro-7-hydroxy-6-(1,1,4-trioxo-1,2,5-thiadiazolidin-2-yl)-2-naphthyl]acetamide]
10 to 50	50 to 200	O=C1CCC(N2C(=O)c3cccc4c(C5CCN(CC(=O)N6CC(Oc7ccc8cc(O)c(N9CC(=O)NS9(=O)=O)c(F)c8c7)C6)CC5(F)F)ccc2c34)C(=O)N1 (stereo not drawn) [Example 165, 3-[6-[3,3-difluoro-1-[2-[3-[[8-fluoro-6-hydroxy-7-(1,1,4-trioxo-1,2,5-thiadiazolidin-2-yl)-2-naphthyl]oxy]azetidin-1-yl]-2-oxo-ethyl]-4-piperidyl]-2-oxo-benzo[cd]indol-1-yl]piperidine-2,6-dione]
50 to 200	200 to 1000	CN(CCOc1ccc2cc(O)c(N3CC(=O)NS3(=O)=O)c(F)c2c1)C(=O)CNCCCc1ccc2c3c(cccc13)C(=O)N2C1CCC(=O)NC1=O (stereo not drawn) [Example 166, N-(2-((7-(1,1-dioxido-4-oxo-1,2,5-thiadiazolidin-2-yl)-8-fluoro-6-hydroxynaphthalen-2-yl)oxy)ethyl)-2-((3-(1-(2,6-dioxopiperidin-3-yl)-2-oxo-1,2-dihydrobenzo[cd]indol-6-yl)propyl)amino)-N-methylacetamide]
50 to 200	50 to 200	Cn1nc(C2CCC(=O)NC2=O)c2ccc(N3CCC(CC(=O)Nc4ccc5c(F)c(N6CC(=O)NS6(=O)=O)c(O)cc5c4)CC3)cc21 (stereo not drawn) [Example 167, 2-[1-[3-(2,6-dioxo-3-piperidyl)-1-methyl-indazol-6-yl]-4-piperidyl]-N-[5-fluoro-7-hydroxy-6-(1,1,4-trioxo-1,2,5-thiadiazolidin-2-yl)-2-naphthyl]acetamide]
